This is an account of results in patent US20080242635A1, “Method for Lengthening the Seasonal Mobility Period of Fish” (priority 2005, published 2008).

One assay concerns fish. Briefly: Lengthening the seasonal mobility period of fish by feed supplements. It is filed as in vivo. To be noted: for Lengthening of the seasonal mobility period of fish (in words): feed supplement.
A further assay concerns koi fish. Put plainly: Pond test: fish feed to lengthen the period of seasonal mobility of koi (Example 5). The format is in vivo. Particulars: relative index 1 to 5 (1 fully immobile, 5 fully mobile), 10 gram feed per day, additive per Table 1. An excerpt:
Four ponds of 40 cubic meters each, all contained 50 koi fish with an approximate total body weight of 50 kg were used to show effectiveness of the fish feed according to the invention. One pond served as a control were the fish were fed with control feed, the fish in the other ponds received a feed according to the invention as prepared in examples 2 to 4 above. The experiment started when the temperature of the water was about 2 degrees Celsius.
The fish in control pond were fed with 10 gram Cyprico White 3 mm floater feed per day, whereas the fish in the other pond were fed with 10 gram of the feeds as described in Example 2, 3 and 4 Table 1).
This effect increased gradually every day until after 5 days the fish were fully mobile, whereas the temperature of the water was still between 2 and 3 degrees Celsius. Mobility of the fish was scored on a relative index of 1 to 5 wherein 1 is fully immobile and 5 is fully mobile Table 2). The water in the control pond was at exactly the same temperature as that of the other ponds, however the fish in the control pond were completely immobile. […] The fish were healthy and fully mobile whereas the control group was almost fully immobile.
Fish in ponds 1, 2 and 3 were fed with fish feed according to the invention, fish in pond 4 received control feed. Further details are described in the examples.

With 1,3 and 1,6 beta glucans, the “Lengthening of the seasonal mobility period of fish (in words)” value in the assay on fish was “very useful”. The “Daily intake, optimum of cost benefit” value in the assay on fish (in vivo) was “around 60 ug/kglw/day”.
Turning to `O=C(O)Cc1c[nH]c2ccccc12` [free IAA, indole-3-acetic acid], the Mobility stood at 1 in the assay with koi fish (day 1, water 2 degrees Celsius); 1 in the assay with koi fish (day 2, water 2 degrees Celsius); 1 in the assay with koi fish (day 3, water 3 degrees Celsius); 2 in the assay with koi fish (day 4, water 3 degrees Celsius); 2 with koi fish (day 5, water 3 degrees Celsius); 3 in the assay with koi fish (day 8, water 3 degrees Celsius). Moreover, the Mobility is 2 with koi fish (day 12, water 3 degrees Celsius); 2 with koi fish (day 16, water 4 degrees Celsius); 3 in the assay with koi fish (day 20, water 5 degrees Celsius); 4 with koi fish (day 24, water 5 degrees Celsius); 4 with koi fish (day 28, water 6 degrees Celsius). In the assay on fish, the “Lengthening of the seasonal mobility period of fish (in words)” value is reported as “Particularly good results”.
